Measurements taken from ChEMBL document CHEMBL5338738, “Discovery of Novel Sesquiterpene Lactone Derivatives as Potent PKM2 Activators for the Treatment of Ulcerative Colitis” (J Med Chem, 2023).
Active and inactive are the calls of the source. The rule behind the calls is not given here.

What was measured:
Mus musculus [1] = assay: Anti-colitis activity against TNBS-induced ulcerative colitis BALB/c mouse model assessed as increase in colon length at 12.5 to 25 mg/kg, po for consecutive 7 days; format: functional, organism-based; conditions: dose 12.5-25 mg/kg, time 7.0 day
[2] = Cmax in Sprague-Dawley rat at 8 mg/kg,iv and measured upto 24 hrs by LC-MS/MS analysis; format: ADME, organism-based; design: time < 24 hrs, dose 8 mg/kg, route iv; conditions: in vivo
CD4+ve Th [3] = assay: Inhibition of aerobic glycolysis in anti-CD3/CD28 stimulated C57BL/6 mouse mesenteric lymph node CD4+ve Th cells assessed as downregulation of Pfk1 mRNA expression level at 0.3 to 3 uM incubated for 96 hrs in presence of recombinant human TGF-beta, recombinant mouse IL-6 and recombinant mouse IL-23 by qPCR analysis; format: functional, cell-based; conditions: dose 0.3-3 µM
CD4+ve Th [4] = assay: Inhibition of aerobic glycolysis in anti-CD3/CD28 stimulated C57BL/6 mouse mesenteric lymph node CD4+ve Th cells assessed as downregulation of HK2 protein expression level at 0.3 to 3 uM incubated for 96 hrs in presence of recombinant human TGF-beta, recombinant mouse IL-6 and recombinant mouse IL-23 by Western blot analysis; format: functional, cell-based; conditions: dose 0.3-3 µM
CD4+ve Th [5] = assay: Inhibition of aerobic glycolysis in anti-CD3/CD28 stimulated C57BL/6 mouse mesenteric lymph node CD4+ve Th cells assessed as downregulation of Glut1 mRNA expression level at 0.3 to 3 uM incubated for 96 hrs in presence of recombinant human TGF-beta, recombinant mouse IL-6 and recombinant mouse IL-23 by qPCR analysis; format: functional, cell-based; conditions: dose 0.3-3 µM
CD4+ve Th [6] = assay: Inhibition of Th17 cells differentiation in anti-CD3/CD28 stimulated C57BL/6 mouse mesenteric lymph node CD4+ve Th cells assessed as downregulation of IL17f mRNA expression level at 0.1 to 3 uM incubated for 96 hrs in presence of recombinant human TGF-beta, recombinant mouse IL-6 and recombinant mouse IL-23 by qPCR analysis; format: functional, cell-based; conditions: dose 0.1-3 µM
[7] = Inhibition of Treg cells differentiation in anti-CD3/CD28 stimulated C57BL/6 mouse mesenteric lymph node CD4+ve Th cells assessed as decrease in proportion of Foxp3-positive Treg cells at 1 uM incubated for 96 hrs in presence of recombinant human TGF-beta by flow cytometry (Rvb= 21.1%); format: functional; conditions: C57BL/6, CD4+ve Th
CD4+ve Th [8] = assay: Inhibition of aerobic glycolysis in anti-CD3/CD28 stimulated C57BL/6 mouse mesenteric lymph node CD4+ve Th cells assessed as downregulation of Glut1 protein expression level at 0.3 to 3 uM incubated for 96 hrs in presence of recombinant human TGF-beta, recombinant mouse IL-6 and recombinant mouse IL-23 by Western blot analysis; format: functional, cell-based; conditions: dose 0.3-3 µM
[9] = Clearance in Sprague-Dawley rat at 8 mg/kg,iv and measured upto 24 hrs by LC-MS/MS analysis; format: ADME, organism-based; conditions: in vivo
[10] = Tmax in Sprague-Dawley rat at 8 mg/kg,iv and measured upto 24 hrs by LC-MS/MS analysis; format: ADME, organism-based; conditions: in vivo
CD4+ve Th [11] = assay: Inhibition of aerobic glycolysis in anti-CD3/CD28 stimulated C57BL/6 mouse mesenteric lymph node CD4+ve Th cells assessed as reduction in glucose utilization by measuring glucose level at 0.3 to 3 uM incubated for 96 hrs in presence of recombinant human TGF-beta, recombinant mouse IL-6 and recombinant mouse IL-23 by colorimetric analysis; format: functional, cell-based; conditions: dose 0.3-3 µM
[12] = Toxicity in C57BL/6 mouse assessed as histological change in kidney at 6.25 to 25 mg/kg, po for 10 days consecutively by H and E staining based microscopy; format: organism-based; conditions: in vivo, 240 h, dose 6.25-25 mg/kg, time 10 day
[13] = Inhibition of Treg cells differentiation in anti-CD3/CD28 stimulated C57BL/6 mouse mesenteric lymph node CD4+ve Th cells assessed as decrease in proportion of Foxp3-positive Treg cells at 3 uM incubated for 96 hrs in presence of recombinant human TGF-beta by flow cytometry (Rvb= 21.1%); format: functional; conditions: C57BL/6, CD4+ve Th
[14] = Half life in Sprague-Dawley rat at 8 mg/kg,iv and measured upto 24 hrs by LC-MS/MS analysis; format: ADME, organism-based; conditions: in vivo
[15] = MRT(t) in Sprague-Dawley rat at 8 mg/kg,iv and measured upto 24 hrs by LC-MS/MS analysis; format: ADME, organism-based; conditions: in vivo
[16] = Inhibition of Th17 cells differentiation in anti-CD3/CD28 stimulated C57BL/6 mouse mesenteric lymph node CD4+ve Th cells assessed as decrease in proportion of IL17A-positive Th17 cells at 0.3 uM incubated for 96 hrs in presence of recombinant human TGF-beta, recombinant mouse IL-6 and recombinant mouse IL-23 by flow cytometry (Rvb= 16.7%); format: functional; conditions: C57BL/6, CD4+ve Th
CD4+ve Th [17] = assay: Inhibition of Treg cells differentiation in anti-CD3/CD28 stimulated C57BL/6 mouse mesenteric lymph node CD4+ve Th cells assessed as change in IL10 mRNA expression level cells at 0.1 to 3 uM incubated for 96 hrs in presence of recombinant human TGF-beta by qPCR analysis; format: functional, cell-based; conditions: dose 0.1-3 µM
[18] = Cmax in Sprague-Dawley rat at 75 mg/kg,po and measured upto 24 hrs by LC-MS/MS analysis; format: ADME, organism-based; design: dose 75 mg/kg, time < 24 hrs, route po; conditions: in vivo
Mus musculus [19] = assay: Anti-colitis activity against TNBS-induced ulcerative colitis BALB/c mouse model assessed as decrease in infiltration of inflammatory cells into lamina propria in colon at 12.5 to 25 mg/kg, po for consecutive 7 days by H and E staining based microscopy; format: functional, organism-based; conditions: dose 12.5-25 mg/kg, time 7.0 day
Mus musculus [20] = assay: Anti-colitis activity against DSS-induced ulcerative colitis C57BL/6 mouse model assessed as decrease in IL-6 mRNA expression level in colon at 12.5 to 25 mg/kg, po for 10 days consecutively by qPCR analysis; format: functional, organism-based; conditions: dose 12.5-25 mg/kg, time 10.0 day
CD4+ve Th [21] = assay: Inhibition of Th17 cells differentiation in anti-CD3/CD28 stimulated C57BL/6 mouse mesenteric lymph node CD4+ve Th cells assessed as downregulation of IL22 mRNA expression level at 0.1 to 3 uM incubated for 96 hrs in presence of recombinant human TGF-beta, recombinant mouse IL-6 and recombinant mouse IL-23 by qPCR analysis; format: functional, cell-based; conditions: dose 0.1-3 µM
Mus musculus [22] = assay: Anti-colitis activity against DSS-induced ulcerative colitis C57BL/6 mouse model assessed as downregulation of Foxp3 mRNA expression level in spleen at 6.25 to 25 mg/kg, po for 10 days consecutively by qPCR assay; format: functional, organism-based; conditions: dose 6.25-25 mg/kg, time 10.0 day
Mus musculus [23] = assay: Anti-colitis activity against DSS-induced ulcerative colitis C57BL/6 mouse model assessed as downregulation of IL17a mRNA expression level in colon at 12.5 to 25 mg/kg, po for 10 days consecutively by qPCR assay; format: functional, organism-based; conditions: dose 12.5-25 mg/kg, time 10.0 day
Mus musculus [24] = assay: Anti-colitis activity against DSS-induced ulcerative colitis C57BL/6 mouse model assessed as reduction in spleen index at 12.5 to 25 mg/kg, po for 10 days consecutively; format: functional, organism-based; conditions: dose 12.5-25 mg/kg, time 10.0 day
[25] = Inhibition of Treg cells differentiation in anti-CD3/CD28 stimulated C57BL/6 mouse mesenteric lymph node CD4+ve Th cells assessed as decrease in proportion of Foxp3-positive Treg cells at 0.1 uM incubated for 96 hrs in presence of recombinant human TGF-beta by flow cytometry (Rvb= 21.1%); format: functional; conditions: C57BL/6, CD4+ve Th

Question: For `C=C1C(=O)O[C@H]2[C@H]1CC[C@@]1(C)[C@@H](CC[C@@]3(C)O[C@@H]23)C1(F)F`, which Activity (Mus musculus [1]) is on record?
Answer: Its Activity is “Active”.

Question: And the Cmax [2]?
Answer: The Cmax was 190 ng/mL.

Question: What about the inhibition (CD4+ve Th [3]) of the same molecule?
Answer: The inhibition was “Active”.

Question: What about the inhibition (CD4+ve Th [4]) of the same molecule?
Answer: The inhibition was “Active”.

Question: And the inhibition (CD4+ve Th [5])?
Answer: Its inhibition is “Active”.

Question: What about the inhibition (CD4+ve Th [6]) of the same molecule?
Answer: The inhibition was “Active”.

Question: What about the Foxp3+ cells at 1 µM [7] of the same molecule?
Answer: Its Foxp3+ cells at 1 µM is 22.8%.

Question: What about the inhibition (CD4+ve Th [8]) of the same molecule?
Answer: The inhibition was “Active”.

Question: And the clearance [9]?
Answer: Its clearance is 103 mL/min/kg.

Question: And the Tmax [10]?
Answer: Its Tmax is 4.98 min.

Question: What about the inhibition (CD4+ve Th [11]) of the same molecule?
Answer: The inhibition was “Active”.

Question: What about the Activity [12] of the same molecule?
Answer: Its Activity is “Non-Toxic”.

Question: What about the Foxp3+ cells at 3 µM [13] of the same molecule?
Answer: Its Foxp3+ cells at 3 µM is 20.8%.

Question: And the half-life [14]?
Answer: Its half-life is 2 h.

Question: What about the MRT last at 24 h [15] of the same molecule?
Answer: The MRT last at 24 h was 5 h.

Question: And the IL17A+ cells at 0.3 µM [16]?
Answer: Its IL17A+ cells at 0.3 µM is 12.4%.

Question: And the inhibition (CD4+ve Th [17])?
Answer: Its inhibition is “inactive”.

Question: What about the Cmax [18] of the same molecule?
Answer: The Cmax was 82 ng/mL.

Question: And the Activity (Mus musculus [19])?
Answer: Its Activity is “Active”.

Question: And the Activity (Mus musculus [20])?
Answer: Its Activity is “Active”.

Question: And the inhibition (CD4+ve Th [21])?
Answer: Its inhibition is “Active”.

Question: What about the Activity (Mus musculus [22]) of the same molecule?
Answer: The Activity was “inactive”.

Question: And the Activity (Mus musculus [23])?
Answer: Its Activity is “Active”.

Question: What about the Activity (Mus musculus [24]) of the same molecule?
Answer: The Activity was “Active”.

Question: What about the Foxp3+ cells at 0.1 µM [25] of the same molecule?
Answer: The Foxp3+ cells at 0.1 µM was 20.3%.
